Earlier results, collected in patent US20050065131A1, “2-alkylidene-19-nor-vitamin D derivatives for enhancement of peak bone mass in adolescence” (Pfizer Inc, priority 2003, published 2005).

System: Bone Calcium Mobilization
Settings: at both dose levels (130 and 260 pmol/day), 7 days

Question: Which “bone calcium mobilization, result in words” value does the source give for `C=C1[C@H](O)CC(=C/C=C2\CCC[C@]3(C)[C@@H]([C@H](C)CCCC(C)(C)O)CC[C@@H]23)C[C@H]1O` [2-Methylene-19-Nor-1,25-(OH)2D3, 1α,25-dihydroxy-2-methylene-19-nor-vitamin D3] here?
Answer: extremely strong
